Bounds are passed on as bounds.

One assay concerns the target T1, CYP1A2 (Homo sapiens, UniProt P05177).
T1 sequence (P05177 1-516): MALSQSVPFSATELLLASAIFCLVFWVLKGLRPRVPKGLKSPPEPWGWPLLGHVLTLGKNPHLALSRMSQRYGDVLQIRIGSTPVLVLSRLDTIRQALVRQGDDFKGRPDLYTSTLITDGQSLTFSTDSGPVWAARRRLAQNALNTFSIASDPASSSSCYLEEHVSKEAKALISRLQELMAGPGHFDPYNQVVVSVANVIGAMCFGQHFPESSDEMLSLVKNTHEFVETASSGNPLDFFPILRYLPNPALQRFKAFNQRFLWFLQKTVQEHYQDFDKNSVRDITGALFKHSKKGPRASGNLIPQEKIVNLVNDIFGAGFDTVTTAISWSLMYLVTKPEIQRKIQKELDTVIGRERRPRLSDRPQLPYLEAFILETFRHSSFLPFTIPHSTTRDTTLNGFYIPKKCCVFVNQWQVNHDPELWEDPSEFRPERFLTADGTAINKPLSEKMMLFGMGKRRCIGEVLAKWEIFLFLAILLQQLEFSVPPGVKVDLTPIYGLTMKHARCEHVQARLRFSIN
Kind of assay: CYP450 isoform inhibition profiling, CYP1A2. The class given is in vitro ADME. How it is done:
page 5: protein-ligand complex were saved and were then loaded into Schrödinger Maestro to generate the ligand interaction plot. In vitro inhibitory assay to PDE7 of compound 27 and selectivity to other PDEs Functional activity of target compound 27 for inhibition of PDE7A activity and the selectivity over other PDE isozymes ([…], and 10A) were evaluated by Eurofins Panlabs Discovery Services and Reaction Biology Corp., respectively. Human recombinant enzymes were used for the assays. The inhibitory assays were performed and calculated in duplicate at 3 μM. If the inhibition percentage was less […] duplicate. CYP450 isoform metabolism and in vitro safety profiling The inhibitory constant of compound 26 toward cytochrome P450-dependent metabolic pathways was determined for individual CYP isoform (CYP1A2, CYP2C9, CYP2C19, CYP2D6, and CYP3A4). Reference inhibitors were included as positive controls. A 10 μM solution of compound 27 was used for initial screening. If the inhibition percentage was less than 50%, the experiment was stopped. […] gradient concentrations of compound 27 were used for IC 50 determination. The P450 reactions were detected at Ext/Em: 405 nm/460 nm (530 nm/605 nm for CYP2C9) in a S3 page 6: […] IC50 curves were plotted using a non-linear regression model with Graphpad Prism 6. […] Plasma and brain samples were quantified by LC-MS/MS method. […]

For a further assay, the target named is hERG channel (Homo sapiens, UniProt Q12809). Kind of assay: In vitro safety: hERG channel inhibition. The format is biochemical. How it is done: time-dependent manner for 80 min with an acquisition interval of 2 min. IC50 curves were
plotted using a non-linear regression model with Graphpad Prism 6. The latter method was
further applied to assess the inhibitory constant of compound 27 to the hERG channel. […]
In general terms: hERG is a cardiac potassium channel; its block is linked to QT prolongation.

A further assay addresses T2, PDE7A (Homo sapiens, UniProt Q13946).
T2 construct: purchased Eurofins Panlabs Discovery Services (contract assay)
As to the kind of experiment: In vitro inhibitory assay of PDE7A activity. The format is biochemical. To be noted: human recombinant enzyme; read-out: inhibitory constant (IC50) toward PDE7A. Here is the method: (§1) protein-ligand complex were saved and were then loaded into Schrödinger Maestro to generate the ligand interaction plot.
(§2) In vitro inhibitory assay to PDE7 of compound 27 and selectivity to other PDEs Functional activity of target compound 27 for inhibition of PDE7A activity and the selectivity over other PDE isozymes (PDE1A/B/C, 2A, 3A/B, 4A/B/C/D, 5A, 8A, 9A, and 10A) were evaluated by Eurofins Panlabs Discovery Services and Reaction Biology Corp., respectively. Human recombinant enzymes were used for the assays. The inhibitory assays were performed and calculated in duplicate at 3 µM. If the inhibition percentage was less than 50%, the assay for half-maximal inhibitory concentration (IC50) value was conducted in […]
(§3) CYP450 isoform metabolism and in vitro safety profiling
(§4) The inhibitory constant of compound 26 toward cytochrome P450-dependent metabolic pathways was determined for individual CYP isoform (CYP1A2, CYP2C9, CYP2C19, CYP2D6, and CYP3A4). Reference inhibitors were included as positive controls. A 10 µM solution of compound 27 was used for initial screening. If the inhibition percentage was less than 50%, the experiment was stopped. If the inhibition potency was greater than 50%, the gradient concentrations of compound 27 were used for IC 50 determination. The P450 reactions were detected at Ext/Em: 405 nm/460 nm (530 nm/605 nm for CYP2C9) in a […]

The test system of assay [1] is other PDE isozymes (PDE1A/B/C, 2A, 3A/B, 4A/B/C/D, 5A, 8A, 9A, and 10A). Kind of assay: Selectivity over other PDE isozymes. To be noted: at 3 μM of compound 27; human recombinant enzymes. The format is biochemical. How it is done: as §1, §2, §3, §4

Chain of hERG channel (Q12809 whole entry): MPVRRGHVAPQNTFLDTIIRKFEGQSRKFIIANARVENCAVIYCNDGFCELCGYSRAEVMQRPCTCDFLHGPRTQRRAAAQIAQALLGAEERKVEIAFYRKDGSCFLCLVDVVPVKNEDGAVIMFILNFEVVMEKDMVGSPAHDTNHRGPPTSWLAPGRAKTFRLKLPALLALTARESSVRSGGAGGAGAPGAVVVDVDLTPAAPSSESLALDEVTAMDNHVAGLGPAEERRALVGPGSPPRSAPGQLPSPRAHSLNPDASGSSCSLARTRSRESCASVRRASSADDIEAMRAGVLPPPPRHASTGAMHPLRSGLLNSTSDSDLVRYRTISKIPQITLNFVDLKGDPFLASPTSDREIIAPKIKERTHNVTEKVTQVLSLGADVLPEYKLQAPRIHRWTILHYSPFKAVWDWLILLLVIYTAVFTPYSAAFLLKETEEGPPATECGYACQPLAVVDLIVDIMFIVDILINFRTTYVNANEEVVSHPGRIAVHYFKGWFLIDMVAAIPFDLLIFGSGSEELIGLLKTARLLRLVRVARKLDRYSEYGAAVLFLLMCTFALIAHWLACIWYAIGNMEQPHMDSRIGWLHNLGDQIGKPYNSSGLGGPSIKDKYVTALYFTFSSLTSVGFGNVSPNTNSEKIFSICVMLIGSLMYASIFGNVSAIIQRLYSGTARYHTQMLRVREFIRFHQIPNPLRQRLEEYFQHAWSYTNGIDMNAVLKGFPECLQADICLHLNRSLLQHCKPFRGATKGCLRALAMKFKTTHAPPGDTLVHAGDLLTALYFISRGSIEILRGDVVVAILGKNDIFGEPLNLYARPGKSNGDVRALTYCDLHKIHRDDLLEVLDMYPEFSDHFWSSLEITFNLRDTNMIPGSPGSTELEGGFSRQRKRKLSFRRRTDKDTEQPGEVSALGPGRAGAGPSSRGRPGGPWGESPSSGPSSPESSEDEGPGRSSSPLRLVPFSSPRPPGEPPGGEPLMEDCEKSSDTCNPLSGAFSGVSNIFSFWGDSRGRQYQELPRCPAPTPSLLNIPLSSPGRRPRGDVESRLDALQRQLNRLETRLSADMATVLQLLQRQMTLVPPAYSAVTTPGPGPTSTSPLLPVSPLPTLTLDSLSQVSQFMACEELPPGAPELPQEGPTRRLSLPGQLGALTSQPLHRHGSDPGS
T2 sequence (Q13946 whole entry): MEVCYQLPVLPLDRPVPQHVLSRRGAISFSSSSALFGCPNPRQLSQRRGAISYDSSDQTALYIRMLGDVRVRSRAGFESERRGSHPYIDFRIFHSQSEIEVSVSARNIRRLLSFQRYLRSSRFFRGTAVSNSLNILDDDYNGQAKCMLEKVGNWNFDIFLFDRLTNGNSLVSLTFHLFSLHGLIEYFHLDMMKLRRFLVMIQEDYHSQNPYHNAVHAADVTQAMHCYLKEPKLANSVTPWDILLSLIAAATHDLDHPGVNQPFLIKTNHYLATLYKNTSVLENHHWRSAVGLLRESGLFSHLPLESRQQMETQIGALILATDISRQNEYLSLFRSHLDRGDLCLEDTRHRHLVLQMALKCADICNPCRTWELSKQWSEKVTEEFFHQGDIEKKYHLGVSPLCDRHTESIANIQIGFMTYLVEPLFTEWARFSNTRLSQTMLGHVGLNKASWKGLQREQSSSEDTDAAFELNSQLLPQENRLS

As to `COc1ccc(Cl)c2c1C1(CCCCC1)NC(=O)N2` [Compound 27], the IC50 (in general, the concentration at which inhibition is half-maximal) against CYP1A2 was 4.4 µM; at hERG channel, over 100 µM; on PDE7A, 0.031 µM. Further, in assay [1], the “% inhibition of other PDE isomers” value is given as under 50%.

These data come from PMC12434536, “Radiosynthesis and Preclinical Evaluation of a Carbon-11 Labeled Phosphodiesterase 7 Inhibitor for PET Neuroimaging” (ACS Medicinal Chemistry Letters, 2025).
